# According to ChEMBL document CHEMBL1201862, “PubChem BioAssay data set” (2004):
#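 The compound was tested at five concentrations on cells cultured in 96-well plates, with a 48-hour exposure period. The concentration for 50% growth inhibition is given as GI50.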 Calls of active or inactive are those of the source. Rule as the data show it: active = GI50 up to about 1.1 µM and inactive = higher.
# Tests used:
# Experiment in all cases: NCI anticancer screen, dose series, 48 h
# [1] = system: HCC 2998
# [2] = system: SK-OV-3
# [3] = system: MDA-MB-231
# [4] = system: NCI-H226
# [5] = system: OVCAR-8
# [6] = system: HOP-92
# [7] = system: SK-MEL-28
# [8] = system: SNB-19
# [9] = system: A549
# [10] = system: LOX IMVI
# [11] = system: UO-31
# [12] = system: SF-539
# [13] = system: UACC-62
# [14] = system: KM12
# [15] = system: COLO 205
# [16] = system: SF-268
# [17] = system: NCI/ADR-RES
# [18] = system: M14
# [19] = system: SK-MEL-2
# [20] = system: T47D
Compound,GI50 [1],GI50 [2],GI50 [3],GI50 [4],GI50 [5],GI50 [6],GI50 [7],GI50 [8],GI50 [9],GI50 [10],GI50 [11],GI50 [12],GI50 [13],GI50 [14],GI50 [15],GI50 [16],GI50 [17],GI50 [18],GI50 [19],GI50 [20]
Oc1c2c(nc3cc4c(cc13)OCO4)-c1ccccc1CCC2,> 50 µM (inactive),> 50 µM (inactive),> 50 µM (inactive),> 50 µM (inactive),48.5 µM (inactive),> 50 µM (inactive),> 50 µM (inactive),> 50 µM (inactive),> 50 µM (inactive),43.3 µM (inactive),> 50 µM (inactive),> 50 µM (inactive),> 50 µM (inactive),> 50 µM (inactive),> 50 µM (inactive),> 50 µM (inactive),> 50 µM (inactive),49.3 µM (inactive),,
CCN(CC)c1ccc2cc(-c3nnc(-c4ccccc4)[nH]3)c(=O)oc2c1,> 100 µM (inactive),19.8 µM (inactive),,,3.78 µM (inactive),,> 100 µM (inactive),12.2 µM (inactive),68.5 µM (inactive),94.4 µM (inactive),4.39 µM (inactive),13.8 µM (inactive),> 100 µM (inactive),40 µM (inactive),> 100 µM (inactive),62.8 µM (inactive),21.7 µM (inactive),> 100 µM (inactive),33 µM (inactive),
COc1cc2c(cc1OC)[C@@H]([C@H](O)c1ccccc1)NCC2,> 100 µM (inactive),> 82.6 µM (inactive),,> 100 µM (inactive),> 100 µM (inactive),> 74.1 µM (inactive),> 100 µM (inactive),> 100 µM (inactive),> 100 µM (inactive),> 100 µM (inactive),> 92.7 µM (inactive),> 100 µM (inactive),> 100 µM (inactive),> 100 µM (inactive),> 100 µM (inactive),> 100 µM (inactive),,> 100 µM (inactive),> 100 µM (inactive),
NC1=NN(c2ccccc2)C(=O)C1C(=O)CCC(=O)Nc1cccc(Cl)c1 (centres undefined),> 100 µM (inactive),> 100 µM (inactive),,> 100 µM (inactive),> 100 µM (inactive),> 100 µM (inactive),> 100 µM (inactive),> 100 µM (inactive),> 100 µM (inactive),> 100 µM (inactive),> 100 µM (inactive),> 100 µM (inactive),> 100 µM (inactive),> 100 µM (inactive),> 100 µM (inactive),> 100 µM (inactive),,> 100 µM (inactive),> 100 µM (inactive),
CCOc1ccc(/C(Cl)=C(\C=O)c2ccc(OC)c(OC)c2)cc1OCC,30 µM (inactive),> 100 µM (inactive),,67.1 µM (inactive),46.8 µM (inactive),58.2 µM (inactive),> 100 µM (inactive),55.3 µM (inactive),46.9 µM (inactive),64.1 µM (inactive),53 µM (inactive),48.9 µM (inactive),33 µM (inactive),91.4 µM (inactive),61.5 µM (inactive),63.8 µM (inactive),,> 100 µM (inactive),> 100 µM (inactive),
CC(C)[C@H](COC(C)(C)C)/N=C/N1CSc2ccccc21,47.3 µM (inactive),29 µM (inactive),,48.3 µM (inactive),35.2 µM (inactive),17.6 µM (inactive),72.3 µM (inactive),37.8 µM (inactive),42 µM (inactive),33.7 µM (inactive),96.2 µM (inactive),23.5 µM (inactive),48.8 µM (inactive),27.6 µM (inactive),18.9 µM (inactive),59 µM (inactive),,36.3 µM (inactive),36.2 µM (inactive),
CCCCCCCCCCCCC(Br)C(C)=O (centres undefined),> 100 µM (inactive),> 100 µM (inactive),,> 100 µM (inactive),> 100 µM (inactive),> 100 µM (inactive),> 100 µM (inactive),> 100 µM (inactive),> 100 µM (inactive),> 100 µM (inactive),> 100 µM (inactive),> 100 µM (inactive),> 100 µM (inactive),> 100 µM (inactive),> 100 µM (inactive),> 100 µM (inactive),,> 100 µM (inactive),> 100 µM (inactive),
c1ccc2c(c1)nc1ccccn12,> 100 µM (inactive),> 100 µM (inactive),,> 100 µM (inactive),> 100 µM (inactive),> 100 µM (inactive),> 100 µM (inactive),> 100 µM (inactive),> 100 µM (inactive),,> 100 µM (inactive),> 100 µM (inactive),> 100 µM (inactive),> 100 µM (inactive),> 100 µM (inactive),> 100 µM (inactive),> 100 µM (inactive),> 100 µM (inactive),,> 100 µM (inactive)
ClCc1ccc(C2OCCO2)cc1,17.8 µM (inactive),46.9 µM (inactive),,16.9 µM (inactive),17.5 µM (inactive),18.8 µM (inactive),> 40.7 µM (inactive),> 43 µM (inactive),> 51.4 µM (inactive),7.23 µM (inactive),> 40.7 µM (inactive),> 42.3 µM (inactive),> 36.6 µM (inactive),12.8 µM (inactive),19.1 µM (inactive),> 100 µM (inactive),,13.6 µM (inactive),21.1 µM (inactive),
COc1ccc(/C(Cl)=C(\C=O)c2ccc(OC)c(OC)c2)cc1OC,> 97.1 µM (inactive),> 100 µM (inactive),> 100 µM (inactive),91.6 µM (inactive),> 94.6 µM (inactive),> 100 µM (inactive),> 94.6 µM (inactive),> 100 µM (inactive),> 100 µM (inactive),33.7 µM (inactive),> 100 µM (inactive),94.6 µM (inactive),> 100 µM (inactive),32.5 µM (inactive),> 100 µM (inactive),37.2 µM (inactive),> 91.4 µM (inactive),> 100 µM (inactive),94.4 µM (inactive),
O=C1C(Br)=CC2(C=C1Br)CCNC1=C2C(=O)c2cccnc2C1=O,18 µM (inactive),16.9 µM (inactive),14.1 µM (inactive),16.6 µM (inactive),15.8 µM (inactive),16 µM (inactive),14.2 µM (inactive),7.23 µM (inactive),14.8 µM (inactive),5.48 µM (inactive),17.5 µM (inactive),8.99 µM (inactive),3.89 µM (inactive),16.1 µM (inactive),16.4 µM (inactive),13.3 µM (inactive),20.8 µM (inactive),8.65 µM (inactive),2.69 µM (inactive),
Cc1cc(C[C@H]2O[C@@H]3OC(C)(C)O[C@@H]3[C@H]3OC(C)(C)O[C@H]32)c2ccccc2n1,> 100 µM (inactive),> 100 µM (inactive),,55.3 µM (inactive),43.1 µM (inactive),,> 100 µM (inactive),> 100 µM (inactive),63.4 µM (inactive),> 100 µM (inactive),33.3 µM (inactive),> 100 µM (inactive),> 100 µM (inactive),54.8 µM (inactive),> 100 µM (inactive),> 100 µM (inactive),34 µM (inactive),,36 µM (inactive),63.5 µM (inactive)
CS/C(=N\c1ccccc1Cl)NC(=O)c1ccc(Br)cc1,> 100 µM (inactive),63 µM (inactive),,41 µM (inactive),> 100 µM (inactive),< 0.01 µM (active),25.9 µM (inactive),33.1 µM (inactive),55.8 µM (inactive),> 100 µM (inactive),> 100 µM (inactive),37.2 µM (inactive),28.4 µM (inactive),> 100 µM (inactive),> 100 µM (inactive),59.8 µM (inactive),,24.6 µM (inactive),66.7 µM (inactive),
Cc1ccccc1NC(=O)/C(=N\NC(N)=S)C(C#N)c1ccccc1 (centres undefined),> 100 µM (inactive),> 100 µM (inactive),,> 100 µM (inactive),> 100 µM (inactive),> 100 µM (inactive),> 100 µM (inactive),> 100 µM (inactive),> 100 µM (inactive),> 100 µM (inactive),> 100 µM (inactive),> 100 µM (inactive),> 100 µM (inactive),> 100 µM (inactive),> 100 µM (inactive),> 100 µM (inactive),,> 100 µM (inactive),> 100 µM (inactive),
CC12CCC(=O)C[C@H]1CCC(OC=O)C2Br (some centres undefined),> 100 µM (inactive),> 100 µM (inactive),,> 100 µM (inactive),> 100 µM (inactive),> 100 µM (inactive),> 100 µM (inactive),> 100 µM (inactive),> 100 µM (inactive),> 100 µM (inactive),> 100 µM (inactive),> 100 µM (inactive),> 100 µM (inactive),> 100 µM (inactive),> 100 µM (inactive),> 100 µM (inactive),,> 100 µM (inactive),> 100 µM (inactive),
CCC[C@H]1C(=O)N=C(N)N1C(=O)OCc1ccccc1,> 100 µM (inactive),,> 100 µM (inactive),> 100 µM (inactive),> 100 µM (inactive),,> 100 µM (inactive),> 100 µM (inactive),,> 100 µM (inactive),86.9 µM (inactive),> 100 µM (inactive),> 100 µM (inactive),> 100 µM (inactive),> 100 µM (inactive),> 100 µM (inactive),> 100 µM (inactive),,> 100 µM (inactive),
